Measured values from ChEMBL document CHEMBL3885881, “DrugMatrix”.

Organism: Rattus norvegicus
Experiment: DrugMatrix - Regimen: Daily Repeat
Assay type: toxicity, organism-based, Sprague-Dawley
Parameters: regimen Daily Repeat, gender Male, age 6-8 weeks
Conditions: in vivo, po, route oral GAVAGE, vehicle 100 % WATER; for ABSOLUTE BASOPHIL / ABSOLUTE EOSINOPHIL / ABSOLUTE LYMPHOCYTE / ABSOLUTE MONOCYTE / ABSOLUTE SEGMENTED NEUTROPHIL / BASOPHIL / EOSINOPHIL / ERYTHROCYTE COUNT / HEMATOCRIT / HEMOGLOBIN / LEUKOCYTE COUNT / LYMPHOCYTE / MEAN CORPUSCULAR HEMOGLOBIN / MEAN CORPUSCULAR HEMOGLOBIN CONCENTRATION / MEAN CORPUSCULAR VOLUME / MONOCYTE / NEUTROPHIL / NUCLEATED RED BLOOD CELLS / PLATELET COUNT: tissue Blood; for ALANINE AMINOTRANSFERASE / ALBUMIN / ALKALINE PHOSPHATASE / ASPARTATE AMINOTRANSFERASE / BLOOD UREA NITROGEN / CARBON DIOXIDE / CHLORIDE / CHOLESTEROL / CREATINE PHOSPHOKINASE / CREATININE / GLUCOSE / LACTATE DEHYDROGENASE / LIPASE / PHOSPHORUS / POTASSIUM / SODIUM / TOTAL BILIRUBIN / TOTAL PROTEIN / URIC ACID: tissue Plasma
[1] = 30 mg/kg, 120 h, dose level Low, time 5 day
[2] = 2000 mg/kg, 72 h, dose level High, time 3 day
[3] = 2000 mg/kg, 120 h, dose level High, time 5 day

CC(C)NCC(O)c1ccc(NS(C)(=O)=O)cc1 (centres undefined) [SOTALOL]
ABSOLUTE BASOPHIL [1]: 0 CELLS/uL | ABSOLUTE EOSINOPHIL [1]: 80.67 CELLS/uL | ABSOLUTE LYMPHOCYTE [1]: 11724 CELLS/uL | ABSOLUTE MONOCYTE [1]: 98 CELLS/uL | ABSOLUTE SEGMENTED NEUTROPHIL [1]: 997.33 CELLS/uL | BASOPHIL [1]: 0% | EOSINOPHIL [1]: 0.67% | ERYTHROCYTE COUNT [1]: 5.34 x10E6/uL | HEMATOCRIT [1]: 34.2% | HEMOGLOBIN [1]: 13.43 G/DL | LEUKOCYTE COUNT [1]: 12.9 x10E3/uL | LYMPHOCYTE [1]: 90.67% | MEAN CORPUSCULAR HEMOGLOBIN [1]: 25.17 pg | MEAN CORPUSCULAR HEMOGLOBIN CONCENTRATION [1]: 39.27 G/DL | MEAN CORPUSCULAR VOLUME [1]: 64 fL | MONOCYTE [1]: 0.67% | NEUTROPHIL [1]: 8% | NUCLEATED RED BLOOD CELLS [1]: 0 /100WBC | PLATELET COUNT [1]: 1232.33 x10E3/uL | ALANINE AMINOTRANSFERASE [1]: 48 u/L | ALBUMIN [1]: 4.27 G/DL | ALKALINE PHOSPHATASE [1]: 355 u/L | ASPARTATE AMINOTRANSFERASE [1]: 104.33 u/L | BLOOD UREA NITROGEN [1]: 17 mg/dL | CARBON DIOXIDE [1]: 28.33 mmol/L | CHLORIDE [1]: 105 MEQ/L | CHOLESTEROL [1]: 70.67 mg/dL | CREATINE PHOSPHOKINASE [1]: 193.67 u/L | CREATININE [1]: 0.2 mg/dL | GLUCOSE [1]: 131.67 mg/dL | LACTATE DEHYDROGENASE [1]: 156 u/L | LIPASE [1]: 9.33 u/L | PHOSPHORUS [1]: 11.6 mg/dL | POTASSIUM [1]: 6.59 MEQ/L | SODIUM [1]: 150.53 MEQ/L | TOTAL BILIRUBIN [1]: 0.2 mg/dL | TOTAL PROTEIN [1]: 6.13 G/DL | URIC ACID [1]: 1.17 mg/dL | ABSOLUTE BASOPHIL [2]: 0 CELLS/uL | ABSOLUTE EOSINOPHIL [2]: 0 CELLS/uL | ABSOLUTE LYMPHOCYTE [2]: 13259 CELLS/uL | ABSOLUTE MONOCYTE [2]: 47.67 CELLS/uL | ABSOLUTE SEGMENTED NEUTROPHIL [2]: 926.67 CELLS/uL | BASOPHIL [2]: 0% | EOSINOPHIL [2]: 0% | ERYTHROCYTE COUNT [2]: 5.36 x10E6/uL | HEMATOCRIT [2]: 33.57% | HEMOGLOBIN [2]: 13.17 G/DL | LEUKOCYTE COUNT [2]: 14.23 x10E3/uL | LYMPHOCYTE [2]: 93% | MEAN CORPUSCULAR HEMOGLOBIN [2]: 24.57 pg | MEAN CORPUSCULAR HEMOGLOBIN CONCENTRATION [2]: 39.23 G/DL | MEAN CORPUSCULAR VOLUME [2]: 62.73 fL | MONOCYTE [2]: 0.33% | NEUTROPHIL [2]: 6.67% | NUCLEATED RED BLOOD CELLS [2]: 0 /100WBC | PLATELET COUNT [2]: 1424.33 x10E3/uL | ALANINE AMINOTRANSFERASE [2]: 61 u/L | ALBUMIN [2]: 3.9 G/DL | ALKALINE PHOSPHATASE [2]: 388.67 u/L | ASPARTATE AMINOTRANSFERASE [2]: 106.33 u/L | BLOOD UREA NITROGEN [2]: 14 mg/dL | CARBON DIOXIDE [2]: 21.33 mmol/L | CHLORIDE [2]: 104 MEQ/L | CHOLESTEROL [2]: 57.67 mg/dL | CREATINE PHOSPHOKINASE [2]: 412.33 u/L | CREATININE [2]: 0.15 mg/dL | GLUCOSE [2]: 148 mg/dL | LACTATE DEHYDROGENASE [2]: 629 u/L | LIPASE [2]: 10 u/L | PHOSPHORUS [2]: 11.93 mg/dL | POTASSIUM [2]: 7.54 MEQ/L | SODIUM [2]: 142.93 MEQ/L | TOTAL BILIRUBIN [2]: 0.2 mg/dL | TOTAL PROTEIN [2]: 5.5 G/DL | URIC ACID [2]: 1.8 mg/dL | ABSOLUTE BASOPHIL [3]: 0 CELLS/uL | ABSOLUTE EOSINOPHIL [3]: 0 CELLS/uL | ABSOLUTE LYMPHOCYTE [3]: 13770.67 CELLS/uL | ABSOLUTE MONOCYTE [3]: 100.67 CELLS/uL | ABSOLUTE SEGMENTED NEUTROPHIL [3]: 1095.33 CELLS/uL | BASOPHIL [3]: 0% | EOSINOPHIL [3]: 0% | ERYTHROCYTE COUNT [3]: 5.87 x10E6/uL | HEMATOCRIT [3]: 36.53% | HEMOGLOBIN [3]: 14.37 G/DL | LEUKOCYTE COUNT [3]: 14.97 x10E3/uL | LYMPHOCYTE [3]: 92% | MEAN CORPUSCULAR HEMOGLOBIN [3]: 24.47 pg | MEAN CORPUSCULAR HEMOGLOBIN CONCENTRATION [3]: 39.33 G/DL | MEAN CORPUSCULAR VOLUME [3]: 62.27 fL | MONOCYTE [3]: 0.67% | NEUTROPHIL [3]: 7.33% | NUCLEATED RED BLOOD CELLS [3]: 0.33 /100WBC | PLATELET COUNT [3]: 1192.33 x10E3/uL | ALANINE AMINOTRANSFERASE [3]: 54.33 u/L | ALBUMIN [3]: 4.33 G/DL | ALKALINE PHOSPHATASE [3]: 480.33 u/L | ASPARTATE AMINOTRANSFERASE [3]: 83 u/L | BLOOD UREA NITROGEN [3]: 16.33 mg/dL | CARBON DIOXIDE [3]: 24.33 mmol/L | CHLORIDE [3]: 106 MEQ/L | CHOLESTEROL [3]: 77 mg/dL | CREATINE PHOSPHOKINASE [3]: 259.33 u/L | CREATININE [3]: 0.22 mg/dL | GLUCOSE [3]: 159.33 mg/dL | LACTATE DEHYDROGENASE [3]: 78.67 u/L | LIPASE [3]: 10.33 u/L | PHOSPHORUS [3]: 13.13 mg/dL | POTASSIUM [3]: 6.86 MEQ/L | SODIUM [3]: 148.2 MEQ/L | TOTAL BILIRUBIN [3]: 0.2 mg/dL | TOTAL PROTEIN [3]: 6.13 G/DL | URIC ACID [3]: 1.73 mg/dL
